Experimental data: patent US12551482B2, “Aurora kinase inhibitors” (The Regents of the University of California, priority 2013, dated 2026)
Like-named read-outs stand apart in the source and are kept apart here.

Legend:
ACN = experiment: Cancer cell line profiling, Genomics of Drug Sensitivity Project; conditions: read-out: CD532 EC50 (uM)
DJM-1 = experiment: as above; conditions: read-out: CD532 EC50 (uM)
MYCN [1] = experiment: Dose response immunoblot for MYCN in MYCN-amplified neuroblastoma cell lines (SK-N-BE(2), SMS-KCN, Kelly); assay type: cell-based; conditions: multiple cell lines, 24 hrs (FIGS. 1D and 7)
Description: (§1) Neuroblastoma tumor cell lines were obtained from the University of California San Francisco Cell Culture Facility (Kelly, SK-N-BE2, and SH-EP). SMS-KCN, SHEP MYCN^wt and MYCN^T58A/S62A cells were obtained. All cells were grown in RPMI with 10% FBS. Neuroblastoma cells were harvested and lysed with Cell Signaling Lysis buffer+1% SDS, sonicated and supernatants boiled in LDS sample buffer (Invitrogen). Western blots were performed as described previously (Chanthery et al., 2012), with primary antibodies to MYCN (ab24193, Abcam), Histone H3, P-Histone H3 (S10), Aurora A (Cell signaling), and GAPDH (Millipore). Western blot quantitation performed with ImageJ software.

23132/87 = experiment: Cancer cell line profiling, Genomics of Drug Sensitivity Project; conditions: read-out: CD532 EC50 (uM)
NCI-N87 = experiment: as above; conditions: Homo sapiens, NCI-N87, read-out: CD532 EC50 (uM)
SAS = experiment: as above; conditions: read-out: CD532 EC50 (uM)
NB17 = experiment: as above; conditions: read-out: CD532 EC50 (uM)
HT-144 = experiment: as above; conditions: Homo sapiens, HT-144, read-out: CD532 EC50 (uM)
RPMI-7951 = experiment: as above
HO-1-N-1 = experiment: as above; conditions: read-out: CD532 EC50 (uM)
RPMI 2650 = experiment: as above; conditions: Homo sapiens, RPMI-2650, read-out: CD532 EC50 (uM)
BB30-HNC = experiment: as above; conditions: read-out: CD532 EC50 (uM)
SK-MEL-30 = experiment: as above; conditions: Homo sapiens, SK-MEL-30, read-out: CD532 EC50 (uM)
ML-1 = experiment: as above; conditions: ML1, read-out: CD532 EC50 (uM)
5637 = experiment: as above; conditions: read-out: CD532 EC50 (uM)
KON = experiment: as above; conditions: read-out: CD532 EC50 (uM)
GT3TKB = experiment: as above; conditions: read-out: CD532 EC50 (uM)
RVH-421 = experiment: as above; conditions: Homo sapiens, RVH-421, read-out: CD532 EC50 (uM)
MYCN [2] = experiment: Screen of Kelly MYCN-amplified cells, western blot for MYCN; assay type: cell-based; conditions: 1 μM, 24 hrs
Description: as §1
To test whether this panel of 32 putative conformation-disrupting Aurora A inhibitors would destabilize MYCN, initially Kelly MYCN-amplified neuroblastoma cells were treated with candidate inhibitors and MYCN protein was measured by western blot. Phosphorylation of Histone H3, a known substrate for Aurora A and B and a marker for mitosis, was also assessed. FIGS. 1B and 5 show decreased levels of both MYCN protein and p-Histone H3 in response to several members of the screening panel (quantitated in FIG. 1).

MYCN-MAX = experiment: Immunoprecipitation of MYCN and immunoblot for MAX; assay type: cell-based; conditions: SK-N-BE(2) cells, 2 hrs
Description: Pulldowns were performed with anti-N-Myc antibody (Santa Cruz, SC-53993) and Protein G sepharose beads (Sigma-Aldrich, P3296). Immunoblots were performed as described above.

SNU-1 = experiment: Cancer cell line profiling, Genomics of Drug Sensitivity Project; conditions: Homo sapiens, SNU1, read-out: CD532 EC50 (uM)
P-Histone H3 (S10) = experiment: Dose response immunoblot for phosphorylation of Histone H3 (S10) in MYCN-amplified neuroblastoma cell lines; assay type: cell-based; conditions: FIGS. 1D and 7
Description: as §1

MKN1 = experiment: Cancer cell line profiling, Genomics of Drug Sensitivity Project; conditions: Homo sapiens, MKN-1, read-out: CD532 EC50 (uM)
[3] = tested on: MYCN-expressing, SHH-subtype medulloblastoma allograft; experiment: Medulloblastoma allograft in mice; assay type: in vivo
Description: Mice were injected intraperitoneally as described. For determining tumor volume, for example in medulloblastoma model mice, mice were euthanized once maximum tumor length exceeded 2.0 cm, per IACUC protocol (IACUC, Institutional Animal Care and Use Committee).

MMAC-SF = experiment: Cancer cell line profiling, Genomics of Drug Sensitivity Project; conditions: read-out: CD532 EC50 (uM)
[4] = biological target: T1, c-MYC/Aurora A interaction (Homo sapiens, UniProt O14965); experiment: Immunoprecipitation of c-MYC and immunoblotting for Aurora A; assay type: cell-based; conditions: RKO colon cancer cell line
T1 construct: endogenous in cells; host or cells: RKO colon cancer cell line
T1 sequence (O14965 whole entry): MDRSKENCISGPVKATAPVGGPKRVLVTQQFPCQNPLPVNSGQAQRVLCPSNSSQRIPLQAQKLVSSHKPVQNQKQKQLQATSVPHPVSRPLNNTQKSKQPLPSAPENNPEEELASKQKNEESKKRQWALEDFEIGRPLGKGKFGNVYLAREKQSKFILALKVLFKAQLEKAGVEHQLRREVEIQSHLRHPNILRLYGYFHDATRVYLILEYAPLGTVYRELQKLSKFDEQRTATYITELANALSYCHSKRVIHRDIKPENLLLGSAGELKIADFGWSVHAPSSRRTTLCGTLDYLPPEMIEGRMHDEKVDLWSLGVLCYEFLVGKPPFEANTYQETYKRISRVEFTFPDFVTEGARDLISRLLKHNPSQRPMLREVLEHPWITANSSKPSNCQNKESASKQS

MKN45 = experiment: Cancer cell line profiling, Genomics of Drug Sensitivity Project

O=C(Nc1ccc(Nc2nccc(Nc3cc(C4CCCC4)[nH]n3)n2)cc1)Nc1cccc(C(F)(F)F)c1 [CD532, 1-(4-((4-((5-cyclopentyl-1H-pyrazol-3-yl)amino)pyrimidin-2-yl)amino)phenyl)-3-(3-(trifluoromethyl)phenyl)urea]
EC50 (ACN): 0.884 µM | EC50 (DJM-1): 0.427 µM | MYCN protein, dose response (MYCN [1]): dose dependent loss of MYCN protein | EC50 (23132/87): 0.471 µM | EC50 (NCI-N87): 10.9 µM | EC50 (SAS): 1.46 µM | EC50 (NB17): 0.282 µM | EC50 (HT-144): 0.366 µM | EC50 (RPMI-7951; Homo sapiens, RPMI-7951, read-out: CD532 EC50 (uM), RPMI-7951 cell line, Skin): 1.06 µM | EC50 (RPMI-7951; read-out: CD532 EC50, RPMI-7951 cell line, Skin): 0.952 µM | EC50 (HO-1-N-1): 1.67 µM | EC50 (RPMI 2650): 0.412 µM | EC50 (BB30-HNC): 0.462 µM | EC50 (SK-MEL-30): 0.323 µM | EC50 (ML-1): 1.32 µM | EC50 5637: 0.49 µM | EC50 (KON): 4.15 µM | EC50 (GT3TKB): 1.05 µM | EC50 (RVH-421): 0.585 µM | MYCN protein level (MYCN [2]): decreased levels of both MYCN and p-Histone H3 proteins | MYCN-MAX binding (MYCN-MAX): did not affect MYCN-MAX binding | EC50 (SNU-1): 0.158 µM | phosphorylation of Histone H3 at S10, dose response (P-Histone H3 (S10)): behaves similarly to MLN8237 with regard to Histone H3 phosphorylation | EC50 (MKN1): 0.86 µM | overall survival ([3]; 25 mg/kg b.i.w. vs vehicle): statistical significant increase in overall survival | tumor growth (tumor size over time) ([3]; 25 mg/kg b.i.w., intraperitoneal injection): inhibits growth | EC50 (MMAC-SF): 0.566 µM | c-MYC association with Aurora A [4]: reduces this interaction | EC50 (MKN45; Homo sapiens, MKN-45, read-out: CD532 EC50 (uM), MKN45 cell line, Stomach): 0.456 µM | EC50 (MKN45; read-out: CD532 EC50, MKN45 cell line, Stomach): 0.26 µM
